Assay results taken from ChEMBL document CHEMBL1134617 (J Med Chem, 2001).

Assays:
[1] = molecular target: T1, 5-hydroxytryptamine receptor 2C (Rattus norvegicus, UniProt P08909); assay: Binding affinity against rat 5-hydroxytryptamine 2C receptor using [3H]mesulergine as radioligand
T1 sequence (P08909 whole entry): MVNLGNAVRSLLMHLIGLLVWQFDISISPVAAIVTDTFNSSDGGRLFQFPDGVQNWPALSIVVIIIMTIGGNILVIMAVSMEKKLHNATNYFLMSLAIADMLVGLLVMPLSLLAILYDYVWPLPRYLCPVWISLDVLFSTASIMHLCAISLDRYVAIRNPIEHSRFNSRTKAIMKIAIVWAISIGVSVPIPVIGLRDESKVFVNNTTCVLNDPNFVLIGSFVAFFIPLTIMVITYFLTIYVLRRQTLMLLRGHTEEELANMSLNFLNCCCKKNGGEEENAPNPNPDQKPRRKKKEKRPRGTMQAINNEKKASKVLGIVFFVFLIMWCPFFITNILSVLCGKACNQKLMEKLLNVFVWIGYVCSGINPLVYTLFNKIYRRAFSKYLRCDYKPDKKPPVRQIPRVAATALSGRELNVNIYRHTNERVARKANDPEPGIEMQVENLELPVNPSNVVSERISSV

[2] = molecular target: T2, 5-hydroxytryptamine receptor 2A (Rattus norvegicus, UniProt P14842); assay: Binding affinity against rat 5-hydroxytryptamine 2A receptor using [3H]ketanserin as radioligand
T2 sequence (P14842 whole entry): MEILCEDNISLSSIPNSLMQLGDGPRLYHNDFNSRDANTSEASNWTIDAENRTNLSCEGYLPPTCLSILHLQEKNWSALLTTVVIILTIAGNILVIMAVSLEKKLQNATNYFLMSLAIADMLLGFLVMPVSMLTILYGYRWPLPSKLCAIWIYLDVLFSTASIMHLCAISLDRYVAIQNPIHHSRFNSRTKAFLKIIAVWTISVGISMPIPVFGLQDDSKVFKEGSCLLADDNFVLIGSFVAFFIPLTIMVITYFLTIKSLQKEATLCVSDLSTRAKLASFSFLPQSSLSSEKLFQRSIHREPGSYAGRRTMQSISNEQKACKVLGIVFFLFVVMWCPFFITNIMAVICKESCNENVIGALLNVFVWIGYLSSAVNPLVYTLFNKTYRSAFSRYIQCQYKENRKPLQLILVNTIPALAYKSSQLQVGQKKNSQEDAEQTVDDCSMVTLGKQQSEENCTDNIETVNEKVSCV

[3] = molecular target: Serotonin receptor 2a and 2c (5HT2A and 5HT2C) (Rattus norvegicus) (UniProt P08909+P14842); assay: Ratio of binding affinity towards rat 5-HT2C and 5-HT2A receptors; type: protein assay
Sequence of Serotonin receptor 2a and 2c (5HT2A and 5HT2C) (Rattus norvegicus) (P14842 whole entry, looked up, one chain of several): as the sequence (P14842 whole entry) above

[4] = molecular target: T2, 5-hydroxytryptamine receptor 2A; assay: Binding affinity against rat 5-hydroxytryptamine 2A receptor using [3H]DOB as radioligand

## COc1ccc(CCCc2ccccc2)cc1CC(C)N (configuration not stated)
[1]
  Ki: 110 nM
[2]
  Ki: 13 nM
[3]
  Ratio: 8
[4]
  Ki: 19 nM

## COc1cc(CCCc2ccccc2)ccc1CCN
[1]
  Ki: 295 nM
[2]
  Ki: 18 nM
[3]
  Ratio: 16
[4]
  Ki: 12 nM

## COc1ccc(Cc2ccccc2)cc1CCN
[1]
  Ki: 230 nM
[2]
  Ki: 176 nM
[3]
  Ratio: 1

## COc1cc(CCCC2CCCCC2)ccc1CCN
[1]
  Ki: 116 nM
[2]
  Ki: 438 nM
[3]
  Ratio: < 1
[4]
  Ki: 250 nM

## COc1ccc(OC)c(CCN)c1
[1]
  Ki: 6400 nM
[2]
  Ki: 2820 nM
[3]
  Ratio: 2

## COc1ccc(I)cc1CCN
[1]
  Ki: 1640 nM
[2]
  Ki: 700 nM
[3]
  Ratio: 2
[4]
  Ki: 211 nM

## COc1ccc(CCCCc2ccccc2)cc1CCN
[1]
  Ki: 71 nM
[2]
  Ki: 89 nM
[3]
  Ratio: 1
[4]
  Ki: 67 nM

## COc1ccccc1CCN
[1]
  Ki: > 10000 nM
[2]
  Ki: > 10000 nM
[4]
  Ki: > 10000 nM

## COc1ccc(-c2ccccc2)cc1CCN
[1]
  Ki: 2870 nM
[2]
  Ki: 3460 nM
[3]
  Ratio: 1
[4]
  Ki: 1520 nM

## COc1cc(CCCc2ccccc2)ccc1CC(C)N (configuration not stated)
[3]
  Ratio: 11

## COc1ccc(OCCc2ccc(Br)cc2)cc1CCN
[1]
  Ki: 115 nM
[2]
  Ki: 91 nM
[3]
  Ratio: 1
[4]
  Ki: 35 nM

## COc1ccc(O)cc1CCN
[1]
  Ki: 4860 nM
[2]
  Ki: 5960 nM
[3]
  Ratio: 1
[4]
  Ki: 1330 nM

## COc1cc(CCc2ccccc2)ccc1CCN
[1]
  Ki: 170 nM
[2]
  Ki: 46 nM
[3]
  Ratio: 4

## COc1ccc(CCc2ccccc2)cc1CCN
[1]
  Ki: 435 nM
[2]
  Ki: 240 nM
[3]
  Ratio: 2

## COc1cc(-c2ccccc2)ccc1CCN
[1]
  Ki: 1520 nM
[2]
  Ki: 6720 nM
[3]
  Ratio: < 1
[4]
  Ki: 4900 nM

## COc1cc(CCCCCc2ccccc2)ccc1CCN
[1]
  Ki: 19 nM
[2]
  Ki: 72 nM
[3]
  Ratio: < 1
[4]
  Ki: 18 nM

## COc1cc(Cc2ccccc2)ccc1CCN
[1]
  Ki: 93 nM
[2]
  Ki: 23 nM
[3]
  Ratio: 4

## COc1ccc(OCCc2ccccc2)cc1CCN
[1]
  Ki: 1790 nM
[2]
  Ki: 600 nM
[3]
  Ratio: 3
[4]
  Ki: 440 nM

## COc1ccc(Br)cc1CCN
[1]
  Ki: 960 nM
[2]
  Ki: 1000 nM
[3]
  Ratio: 1
[4]
  Ki: 208 nM

## COc1ccc(C#CCCCc2ccccc2)cc1CCN
[1]
  Ki: 205 nM
[2]
  Ki: 295 nM
[3]
  Ratio: < 1

## COc1cc(OCCc2ccccc2)ccc1CCN
[1]
  Ki: 810 nM
[2]
  Ki: 172 nM
[3]
  Ratio: 5
[4]
  Ki: 110 nM

## COc1ccc(CCCCCc2ccccc2)cc1CCN
[1]
  Ki: 150 nM
[2]
  Ki: 110 nM
[3]
  Ratio: 1

## COc1cc(CCCCc2ccccc2)ccc1CCN
[1]
  Ki: 68 nM
[2]
  Ki: 59 nM
[3]
  Ratio: 1
[4]
  Ki: 42 nM

## COc1ccc(CCCc2ccccc2)cc1CCN
[1]
  Ki: 220 nM
[2]
  Ki: 20 nM
[3]
  Ratio: 11
[4]
  Ki: 30 nM

## COc1ccc(CCCC2CCCCC2)cc1CCN
[1]
  Ki: 198 nM
[2]
  Ki: 380 nM
[3]
  Ratio: < 1
[4]
  Ki: 760 nM

## COc1cc(C#CCCCc2ccccc2)ccc1CCN
[1]
  Ki: 70 nM
[2]
  Ki: 295 nM
[3]
  Ratio: < 1
[4]
  Ki: 240 nM

## COc1ccc(OCc2ccccc2)cc1CCN
[1]
  Ki: 410 nM
[2]
  Ki: 345 nM
[3]
  Ratio: 1
[4]
  Ki: 255 nM
